Assay results from patent US6448401B1, “Process for water soluble azole compounds” (Bristol-Myers Squibb Company, priority 2000, dated 2002).
≈ marks a conversion by molar mass, not a printed value. One block for each compound: values may come before it.

Experiments:
aqueous solubility = settings: for solubility (in words): crystalline salts
[1] = stability (in solution / of salts); settings: for stability (in words): crystalline salts
[2] = conversion of prodrug to parent drug in vivo

solubility (aqueous solubility; water, pH 6.8, water): 0.6 µg/mL (≈ 0.00137 mM)
SMILES: C[C@@H](c1nc(-c2ccc(C#N)cc2)cs1)[C@](O)(Cn1cncn1)c1ccc(F)cc1F [(2R,3R)-3-[4-(4-cyanophenyl)thiazol-2-yl]-2-(2,4-difluorophenyl)-1-(1 H-1,2,4-triazol-1-yl)-butan-2-ol, reference compound]

SMILES: C[C@@H](c1nc(-c2ccc(C#N)cc2)cs1)[C@@](Cn1cncn1)(OCOP(=O)(O)O)c1ccc(F)cc1F [Example 2, (2R,3R)-3-[4-(4-cyanophenyl)thiazol-2-yl]-2-(2,4-difluorophenyl)-1-(1H-1,2,4-triazol-1-yl)-2-[(dihydrogenphosphonoxy)methoxy]butane]
stability in solution ([1]; in solution): stable in solution
solubility (aqueous solubility; aqueous solution, pH 4.3, aqueous buffer): 5000 to 6000 µg/mL (≈ 9.13 to 11 mM)
solubility (aqueous solubility; aqueous solution, pH 7, aqueous buffer): > 10000 µg/mL
conversion to parent drug in vivo [2]: readily converted to parent drug in vivo

SMILES: C[C@@H](c1nc(-c2ccc(C#N)cc2)cs1)[C@@](Cn1cncn1)(OCOP(=O)(O)O)c1ccc(F)cc1F.NCCCC[C@H](N)C(=O)O.NCCCC[C@H](N)C(=O)O [Example 3, Bis lysine salt of (2R,3R)-3-[4-(4-cyanophenyl)thiazol-2-yl]-2-(2,4-difluorophenyl)-1-(1H-1,2,4-triazol-1-yl)-2-[(dihydrogenphosphonoxy)methoxy]butane]
stability (in words) [1]: good solubility and stability
solubility (in words) (aqueous solubility): good solubility

SMILES: CC(C)(C)N.C[C@@H](c1nc(-c2ccc(C#N)cc2)cs1)[C@@](Cn1cncn1)(OCOP(=O)(O)O)c1ccc(F)cc1F [Example 4, Tert-butyl amine salt of (2R,3R)-3-[4-(4-cyanophenyl)thiazol-2-yl]-2-(2,4-difluorophenyl)-1-(1H-1,2,4-triazol-1-yl)-2-[(dihydrogenphosphonoxy)methoxy]butane]
stability (in words) [1]: good solubility and stability
solubility (in words) (aqueous solubility): good solubility
